In patent US11419913B2, “Pharmaceutical compositions for inhibiting inflammatory cytokines” (S.I.S. SHULOV INNOVATIVE SCIENCE LTD., priority 2018, dated 2022):
Where a SMILES comes first, the peptide text is derived from it. [ ]: non-standard residue; d: D form. The star is where a group is joined. pGlu = O=C1CC[C@@H](C(=O)O)N1; Octanoyl = CCCCCCCC(=O)*

Columns and labels:
IL-1B = IL-1B production in LPS-stimulated human PBMCs; format: cell-based; settings: ZEP3 40, 100 and 150 μg/ml, 1 hr pre-treatment, LPS 24 hours; 4 donors
Protocol: (§1) The effect of the peptide ZEP3 (SEQ ID NO: 1) on cytokine production was evaluated in an in vitro human model of inflammation. Human Peripheral Blood Mononuclear Cells (PBMCs) were stimulated using Lipopolysaccharide (LPS) to produce cytokines.
(§2) Method: Briefly, cryopreserved human PBMCs of four healthy non-smokers, not on any corticosteroids or other inflammatory drugs, were grown in RPMI 1640 with 10% heat inactivated fetal bovine serum (FBS), 100 U/ml penicillin and 100 μg/mL streptomycin (complete growth medium, CGM).
(§3) Human PBMCs were thawed and plated for all groups (1-6, Table 7), and rested for 1 hour before treatment. […] 24 hours post LPS addition, Almar Blue fluorescent at 585 nm (correlating with cell viability), is measured and supernatant is collected for cytokine determination. […]
(§4) Detailed method: cells were thawed according to manufacturer's instructions, washed in CGM and assessed for viability using trypan blue staining. […] At 24 hours post LPS stimulation, plates were read for assessment of cell viability and cell culture supernatants were harvested and stored at −80° C. for cytokine analysis. […] Cytokine production and percentage of sample stimulation vs. the average of the stimulation control were calculated.

IL-10 = IL-10 production in LPS-stimulated human PBMCs; format: cell-based; settings: ZEP3 40, 100 and 150 μg/ml, 1 hr pre-treatment, LPS 24 hours; 4 donors
Protocol: as §1, §2, §3, §4

[1] = test system: Human primary Corneal Epithelial Cells; assay: Cell viability (LDH assay) in corneal epithelial cell culture dry eye disease model; format: cell-based
Protocol: (§5) The anti-inflammatory effect of the peptides in experimental corneal inflammation was tested in a cell culture model using various inflammasome inducers such as LPS, 4-HNE, Nigericin and others to model a dry-eye-disease (DED). Using a dose-response model, human primary corneal epithelial cells were pre-treated with the peptides followed by exposure to DED inducers. Expression of IL-6 was measured as well as cell viability, ROS production.
(§6) Human primary Corneal Epithelial Cells (PCS-700-010; HCECs) were treated with ZEP3 at concentrations ranging from 3 to 12 μg/ml for 2 hours then exposed to LPS, 4-HNE or Nigericin for 24 hours. Following incubation, the levels of the pro-inflammatory cytokine IL-6, cell viability and reactive oxygen species (ROS) production in the cell cultures were measured.

B6 Macrophage cells = assay: Viability of macrophages activated by LPS and palmitic acid (LDH Cytotoxicity Assay Kit); format: cell-based, mouse; settings: ZEP3 50 μg/ml, LPS 100 ng/ml; for OD (LDH Cytotoxicity Assay): 24 hours
Protocol: Macrophages originating from C57BL/6 mice were cultured at a density of 200,000 cells/mL in a 24-well plate (500 μl well) and incubated at 37° C. and 5% CO2 overnight. Following the overnight incubation, media were replaced with fresh media containing 100 ng/mL LPS, followed by three hours incubation. The LPS-containing media in the treatment groups were then replaced with fresh media containing ZEP3 at concentration of 50 μg/ml, followed by one-hour incubation. Next, palmitic acid (100, 200 or 400 μM) was added to the appropriate wells. The plates were incubated for additional 24 hours and the viability of cells was estimated using an LDH Cytotoxicity Assay Kit.

IFNγ = assay: IFN-γ production in LPS-stimulated human PBMCs; format: cell-based; settings: ZEP3 40, 100 and 150 μg/ml, 1 hr pre-treatment, LPS 24 hours; 4 donors (FIG. 9)
Protocol: as §1, §2, §3, §4

RANTES = RANTES production in LPS-stimulated human PBMCs; format: cell-based; settings: ZEP3 40, 100 and 150 μg/ml, 1 hr pre-treatment, LPS 24 hours; 4 donors (FIG. 12)
Protocol: as §1, §2, §3, §4

IL-6 = IL-6 in corneal epithelial cell culture dry eye disease model; format: cell-based, human
Protocol: as §5, §6

IL-1beta = assay: Expression of IL-1 beta by Nigericin-activated macrophages; format: cell-based, mouse; parameters: IL-1beta: unit not given here; settings: ZEP4 50 μg/mL, LPS 100 ng/mL, Nigericin 20 mM
Protocol: Macrophage cells originating from C7BL/6 mice were cultured at a density of 200,000 cells/mL in a 24-well plate (500 μl wells) and incubated at 37° C. and […] overnight. Following the overnight incubation, media were replaced with fresh media containing 100 ng/mL LPS. Three hours later, the LPS-containing media were replaced with fresh media containing 50 μg/ml ZEP4 to treatment wells. Following one-hour incubation, Nigericin (20 mM) aliquots were added to the ZEP4 treated and LPS control wells. The plates were incubated for additional 24 hour and the amount of IL-1beta in each well was measured. Reduction in […] production in the treatment group was calculated relative to cells treated with LPS and nigericin (LPS+N).

Row | Compound | IL-1B production (IL-1B) | IL-10 production (FIG. 10) (IL-10) | cell death density ([1]; HCECs treated with ZEP3 and exposed to inflammation inducer, LDH assay (FIG. 6)) | reduction of cell death density ([1]; ZEP3 treated vs untreated cell culture (FIG. 6)) | OD (LDH Cytotoxicity Assay) (B6 Macrophage cells; palmitic acid 100 μM) | OD (LDH Cytotoxicity Assay) (B6 Macrophage cells; palmitic acid 200 μM) | OD (LDH Cytotoxicity Assay) (B6 Macrophage cells; palmitic acid 400 μM) | effect on the viability of inflammation-induced macrophage cells (B6 Macrophage cells; palmitic acid 100, 200 or 400 μM) | interferon gamma (IFNγ) production (IFNγ) | RANTES production (RANTES) | level of IL-6 in cell culture (IL-6; HCECs pre-treated with ZEP3 (3 to 12 μg/ml, 2 hours), exposed to 4-HNE for 24 hr (FIG. 7)) | reduction of IL-6 level (IL-6; ZEP3 treated vs untreated cell culture, 4-HNE 24 hr (FIG. 7)) | IL-1beta (IL-1beta; 24 hour) | % reduction of IL-1beta (IL-1beta; relative to LPS and nigericin (LPS+N))
1 | CCCCCCCC(=O)NCCCC[C@H](NC(=O)[C@H](Cc1c[nH]c2ccccc12)NC(=O)[C@H](CC(N)=O)NC(=O)[C@@H]1CCC(=O)N1)C(=O)O [ZEP3, pGlu-Asn-Trp-Lys(Octanoyl)-OH] ([pGlu]NWK(Octanoyl)-OH) | significant reduction | significant reduction | 3.625±1.092% | 82.8% | 1.437 | 1.496 | 1.6095 | no significant effect | significant reduction | significant reduction | 38.1 ± 1.37 pg/mL | 27.4% |  | 
2 | C[C@@H](O)[C@H](NC(=O)[C@H](Cc1c[nH]c2ccccc12)NC(=O)[C@H](CC(N)=O)NC(=O)[C@@H]1CCC(=O)N1)C(=O)O [ZEP4, pGlu-Asn-Trp-Thr-OH] (HELM PEPTIDE1{[Glp].N.W.T}$$$$V2.0) |  |  |  |  |  |  |  |  |  |  |  |  | 157.1 | 53.8%
